For assay [1] the following is noted: previous studies; cited from earlier work.
Assay [2] deals with T1, AChE (Homo sapiens, UniProt P22303). The assay can be described thus: biochemical. Particulars: for inhibition at 2 µM: concentration 2 μM; for inhibition at 10 µM: concentration 10 μM; for inhibition at 50 µM: concentration 50 μM.
The target of assay [3] is T1, AChE. The settings on record: previous in vitro and in vivo reports; cited from earlier work.
The mark [4] stands for this setting: Ellman method, pH 8.0, triplicate, read-out: IC50 (AChE-inhibitory activity).
[5] abbreviates: read-out: Inhibition (%) of AChE.

Each structure is given as a SMILES string. Where two headings read alike, the source gives them in different places.

T1 sequence (P22303 32-614): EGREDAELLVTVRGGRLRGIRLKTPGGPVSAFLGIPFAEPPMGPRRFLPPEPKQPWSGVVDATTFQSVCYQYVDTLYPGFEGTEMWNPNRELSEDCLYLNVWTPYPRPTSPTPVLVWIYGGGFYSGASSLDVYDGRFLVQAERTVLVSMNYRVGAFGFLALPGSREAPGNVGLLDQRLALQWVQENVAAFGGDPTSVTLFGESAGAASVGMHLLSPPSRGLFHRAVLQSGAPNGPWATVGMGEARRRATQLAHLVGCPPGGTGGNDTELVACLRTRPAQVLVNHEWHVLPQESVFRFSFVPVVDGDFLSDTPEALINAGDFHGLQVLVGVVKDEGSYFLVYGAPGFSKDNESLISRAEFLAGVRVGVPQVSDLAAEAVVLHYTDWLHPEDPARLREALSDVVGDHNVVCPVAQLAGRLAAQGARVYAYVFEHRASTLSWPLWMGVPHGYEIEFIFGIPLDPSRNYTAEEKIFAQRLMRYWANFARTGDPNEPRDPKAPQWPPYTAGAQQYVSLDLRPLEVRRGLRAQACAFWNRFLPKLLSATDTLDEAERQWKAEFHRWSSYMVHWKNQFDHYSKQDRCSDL

Regarding `O=CC1=CC[C@@H](O)[C@H]2CCC[C@@H]12` (relative stereo) [Compound 2, rel-(1R,5R,6S)-5-hydroxybicyclo[4,3,0]non-2-ene-2-carboxaldehyde], the Antifungal activity entry in assay [1] is “weak antifungal activity”. Also, the IC50 on AChE [2] (setting [4]) was 41.7 µM. At AChE [2], the inhibition at 2 µM was -6.07%, the inhibition at 10 µM stood at 7.74% and the inhibition at 50 µM was found to be 62.1%.

Consider `COc1cc(C=O)ccc1O` [Compound 3, vanillin], for which the AChE-inhibitory activities entry on AChE [3] is “has AChE-inhibitory activities”. For the same compound, at AChE [2], the concentration for half-maximal inhibition (IC50) is 39.3 µM, the inhibition at 2 µM is -1.88% and the inhibition at 10 µM is 6.07%.

As to `COc1ccc2cc3[n+](cc2c1OC)CCc1cc2c(cc1-3)OCO2` [berberine, reference compound], on AChE [2] (setting [5]), the inhibition at 0.04 µM turned out to be 20.7%, the inhibition at 0.2 µM was 73.4% and the inhibition at 1 µM was 95.8%.

Regarding `COc1cc(/C=C/C=C/C(=O)CCc2ccc(O)cc2)ccc1O` [Compound 4, tsaokoarylone], the 50% inhibitory concentration (IC50) on AChE [2] (setting [4]) came to 31.1 µM. Further, at AChE [2], the inhibition at 2 µM was -11.9%, the inhibition at 10 µM worked out at 30.8% and the inhibition at 50 µM was 78.7%.

As to `O=C(O)C1=CC[C@@H](O)[C@H]2CCC[C@@H]12` (relative stereo) [Compound 1, rel-(1R,5R,6S)-5-hydroxybicyclo[4.3.0]non-2-ene-2-carboxylic acid], the IC50 on AChE [2] (setting [4]) was 32.8 µM. At AChE [2], the inhibition at 2 µM is 2.09%, the inhibition at 10 µM is 29.5% and the inhibition at 50 µM stood at 70.9%.
